Results on two compounds are retold here after patent US4599325A, “Substituted tyrosyl alanine dipeptide amides” (G. D. Searle & Co., priority 1985, dated 1986).

The assay deals with mice. Briefly: Combined tail flick and hot plate tests: hot plate. It counts as in vivo, mouse. The settings on record: for ED50: Mus musculus, combined tail flick/hot plate; for activity in hot plate test of combined tests: oral and subcutaneous, prior art at doses as great as 100 mg/kg p.o. and 50 mg/kg s.c. The method, then: Male albino inbred mice supplied by Charles River (CD-1/HAM/1LR) weighing between 20 and 30 grams were used. Analgesia was first measured using the tail flick test in which a high intensity beam of light was focused on the blackened tail. The interval of time between onset of the light and reflex removal of the tail was defined as the tail flick latency. The average of two successive determinations was recorded. Following tail flick determination, the animals were immediately placed on a 55° C. copper hot plate to which they were restricted by an inverted 600 ml glass beaker. Hot plate latency was defined as the interval between placement on the hot plate and a behavioral response of either a jump or a hindpaw lick. One determination was recorded. Mice not responding within 4.0 seconds on the tail flick and 20.0 seconds on the hot plate were discarded from the study. The tail flick test and the hot plate test were stopped after 12.0 and 40 seconds, respectively, had elapsed to prevent tissue damage. After determination of pre-injection baseline latencies, the test compound was dissolved in distilled water and administered either orally or subcutaneously (0.1 ml/10 gram body weight). Tail flick and hot plate latencies were measured 10, 30, 60 and 90 minutes after injection. One-way analyses of variance were used to detect any significant increase in tail flick and hot plate latencies (indicative of analgesia) as compared to latencies prior to drug adminstration, as well as to establish the dose-dependence of any effect. A linear regression method (least squares) was used to determine the line of best fit. The ED50 dose was determined to be that dose of test compound that produced one-half the maximum measurable increase in latency. This corresponded to a post-drug tail flick latency of 7.5 seconds and hot plate latency of 25 seconds. G. Keppel: Design and analysis: a researcher's handbook, New Jersey, Prentice-Hall, 1973.
(Hot-plate and tail-flick tests time the reaction to a heat stimulus.)

Counter-ions that a name gives are not always drawn. Like-named read-outs stand apart in the source and are kept apart here.

Consider `Cc1cc(O)cc(C)c1C[C@H](N)C(=O)N[C@H](C)C(=O)NCCCc1ccccc1` [Example 5, 2,6-dimethyltyrosyl-N-(3-phenylpropyl)-D-alaninamide, hydrochloride], for which the “activity in hot plate test of combined tests” value is “active”. Further, under “po, p.o., read-out: Hot Plate (ED50) p.o.”, the ED50 came to 52 mg/kg. Also, the 50% effective dose (ED50) (sc, s.c., read-out: Hot Plate (ED50) s.c.) is 9 mg/kg.
Regarding “tyrosine-D-alanine-phenylpropylamide [Prior Art, reference compound]”, the “activity in hot plate test of combined tests” value is on record as “not active”. Further, under “50 mg/kg s.c.”, the “Hot Plate, activity at stated dose s.c.” value is on record as “Inactive”. Moreover, the “Hot Plate, activity at stated dose p.o.” value (100 mg/kg p.o.) is on record as “Inactive”.

As a reminder, the ED50 is the midpoint of the dose-response relation.
